From the OligoGym collection
Oligonucleotides are written 5' to 3', each unit as a sugar letter and its base; * is a phosphorothioate linkage, no mark a phosphodiester; rarer units and linkages stand in square brackets, end groups in braces. Plain capitals give the bases only. Oligonucleotides are given in HELM: sugar(base)linkage, 5' to 3'; d 2'-deoxyribose, r ribose, m 2'-O-methylribose, p phosphate. ss, as = sense and antisense strand; d = 2'-deoxy (DNA); r = 2'-OH (RNA)
Also: test concentration or dose not given here.

Each substance was assayed against TMEM63B (assay: reporter assay of Huesken 2005). Conditions: siRNA.
“RNA1{r(U)p.r(G)p.r(G)p.r(U)p.r(G)p.r(C)p.r(U)p.r(U)p.r(C)p.r(U)p.r(C)p.r(G)p.r(G)p.r(C)p.r(C)p.r(C)p.r(U)p.r(C)p.r(C)p.d(T)p.d(T)}|RNA2{r(G)p.r(G)p.r(A)p.r(G)p.r(G)p.r(G)p.r(C)p.r(C)p.r(G)p.r(A)p.r(G)p.r(A)p.r(A)p.r(G)p.r(C)p.r(A)p.r(C)p.r(C)p.r(A)p.d(C)p.d(A)}$$$RNA1{StrandType:ss}|RNA2{StrandType:as}$” was tested, and the normalised inhibition (eCFP-eYFP dual reporter) was 65.1%.
Substance “RNA1{r(U)p.r(G)p.r(U)p.r(G)p.r(U)p.r(A)p.r(A)p.r(A)p.r(U)p.r(G)p.r(C)p.r(C)p.r(A)p.r(G)p.r(G)p.r(G)p.r(C)p.r(U)p.r(G)p.d(T)p.d(T)}|RNA2{r(C)p.r(A)p.r(G)p.r(C)p.r(C)p.r(C)p.r(U)p.r(G)p.r(G)p.r(C)p.r(A)p.r(U)p.r(U)p.r(U)p.r(A)p.r(C)p.r(A)p.r(C)p.r(A)p.d(C)p.d(G)}$$$RNA1{StrandType:ss}|RNA2{StrandType:as}$” has a normalised inhibition (eCFP-eYFP dual reporter) of 66.8%.
Substance “RNA1{r(U)p.r(U)p.r(A)p.r(U)p.r(C)p.r(G)p.r(G)p.r(C)p.r(A)p.r(A)p.r(C)p.r(G)p.r(C)p.r(C)p.r(A)p.r(U)p.r(G)p.r(G)p.r(A)p.d(T)p.d(T)}|RNA2{r(U)p.r(C)p.r(C)p.r(A)p.r(U)p.r(G)p.r(G)p.r(C)p.r(G)p.r(U)p.r(U)p.r(G)p.r(C)p.r(C)p.r(G)p.r(A)p.r(U)p.r(A)p.r(A)p.d(A)p.d(G)}$$$RNA1{StrandType:ss}|RNA2{StrandType:as}$” has a normalised inhibition (eCFP-eYFP dual reporter) of 62.7%.
For “RNA1{r(U)p.r(U)p.r(G)p.r(C)p.r(U)p.r(G)p.r(A)p.r(U)p.r(G)p.r(C)p.r(C)p.r(A)p.r(C)p.r(C)p.r(C)p.r(G)p.r(A)p.r(C)p.r(G)p.d(T)p.d(T)}|RNA2{r(C)p.r(G)p.r(U)p.r(C)p.r(G)p.r(G)p.r(G)p.r(U)p.r(G)p.r(G)p.r(C)p.r(A)p.r(U)p.r(C)p.r(A)p.r(G)p.r(C)p.r(A)p.r(A)p.d(C)p.d(T)}$$$RNA1{StrandType:ss}|RNA2{StrandType:as}$”, the normalised inhibition (eCFP-eYFP dual reporter) was 39.7%.
“RNA1{r(U)p.r(U)p.r(U)p.r(A)p.r(U)p.r(C)p.r(G)p.r(G)p.r(C)p.r(A)p.r(A)p.r(C)p.r(G)p.r(C)p.r(C)p.r(A)p.r(U)p.r(G)p.r(G)p.d(T)p.d(T)}|RNA2{r(C)p.r(C)p.r(A)p.r(U)p.r(G)p.r(G)p.r(C)p.r(G)p.r(U)p.r(U)p.r(G)p.r(C)p.r(C)p.r(G)p.r(A)p.r(U)p.r(A)p.r(A)p.r(A)p.d(G)p.d(G)}$$$RNA1{StrandType:ss}|RNA2{StrandType:as}$” gave a normalised inhibition (eCFP-eYFP dual reporter) of 36.7%.

The substances below were run against MRFAP1 (assay: reporter assay of Huesken 2005). Conditions: siRNA.
For “sense rArArArArUrArArCrUrUrUrGrArUrUrUrGrGrAdTdT / antisense rUrCrCrArArArUrCrArArArGrUrUrArUrUrUrUdCdC”, the normalised inhibition (eCFP-eYFP dual reporter) was 69.9%.
“sense rArArArArUrCrUrUrArCrArUrGrUrUrArArUrAdTdT / antisense rUrArUrUrArArCrArUrGrUrArArGrArUrUrUrUdGdT” showed a normalised inhibition (eCFP-eYFP dual reporter) of 76.5%.
“sense rArArArCrUrUrCrArArGrGrArArGrArGrGrCrGdTdT / antisense rCrGrCrCrUrCrUrUrCrCrUrUrGrArArGrUrUrUdTdG” was tested, and the normalised inhibition (eCFP-eYFP dual reporter) was 66.3%.
Substance “sense rArArArGrCrArGrCrGrGrArGrArUrGrCrGrGrCdTdT / antisense rGrCrCrGrCrArUrCrUrCrCrGrCrUrGrCrUrUrUdGdC” has a normalised inhibition (eCFP-eYFP dual reporter) of 35.6%.
“sense rArArArUrArArCrUrUrUrGrArUrUrUrGrGrArAdTdT / antisense rUrUrCrCrArArArUrCrArArArGrUrUrArUrUrUdTdC” gave a normalised inhibition (eCFP-eYFP dual reporter) of 70.2%.
With “sense rArArArUrUrUrUrArUrGrUrGrCrUrArCrArCrUdTdT / antisense rArGrUrGrUrArGrCrArCrArUrArArArArUrUrUdAdA” the normalised inhibition (eCFP-eYFP dual reporter) was 46.8%.
“sense rArArCrCrUrGrCrCrUrGrArUrGrArGrUrUrUrGdTdT / antisense rCrArArArCrUrCrArUrCrArGrGrCrArGrGrUrUdAdT” showed a normalised inhibition (eCFP-eYFP dual reporter) of 52%.
“sense rArArCrUrUrUrGrArUrUrUrGrGrArArArArUrGdTdT / antisense rCrArUrUrUrUrCrCrArArArUrCrArArArGrUrUdAdT” showed a normalised inhibition (eCFP-eYFP dual reporter) of 50.3%.
Work on “sense rArArCrUrUrUrGrGrGrUrCrCrCrUrGrUrGrArCdTdT / antisense rGrUrCrArCrArGrGrGrArCrCrCrArArArGrUrUdCdA” yielded a normalised inhibition (eCFP-eYFP dual reporter) of 26.8%.
“sense rArArGrArUrGrGrCrCrGrArGrArUrGrCrUrGrGdTdT / antisense rCrCrArGrCrArUrCrUrCrGrGrCrCrArUrCrUrUdCdG” gave a normalised inhibition (eCFP-eYFP dual reporter) of 33.1%.
“sense rArArGrCrArGrCrGrGrArGrArUrGrCrGrGrCrCdTdT / antisense rGrGrCrCrGrCrArUrCrUrCrCrGrCrUrGrCrUrUdTdG” showed a normalised inhibition (eCFP-eYFP dual reporter) of 42.8%.
Work on “sense rArArGrGrCrCrGrArCrGrArGrArArGrGrCrGrCdTdT / antisense rGrCrGrCrCrUrUrCrUrCrGrUrCrGrGrCrCrUrUdCdT” yielded a normalised inhibition (eCFP-eYFP dual reporter) of 63.1%.
In the case of “sense rArArGrGrUrUrCrArUrArUrGrUrArGrUrCrArAdTdT / antisense rUrUrGrArCrUrArCrArUrArUrGrArArCrCrUrUdGdA”, the normalised inhibition (eCFP-eYFP dual reporter) is reported as 85.4%.
“sense rArCrArArGrCrArArArGrCrArGrCrGrGrArGrAdTdT / antisense rUrCrUrCrCrGrCrUrGrCrUrUrUrGrCrUrUrGrUdCdT” showed a normalised inhibition (eCFP-eYFP dual reporter) of 62.6%.
“sense rArCrCrUrGrArUrArArGrCrArUrUrUrGrArGrGdTdT / antisense rCrCrUrCrArArArUrGrCrUrUrArUrCrArGrGrUdCdT” showed a normalised inhibition (eCFP-eYFP dual reporter) of 46.8%.
“sense rArCrCrUrGrArUrArGrCrUrCrCrCrUrGrArArCdTdT / antisense rGrUrUrCrArGrGrGrArGrCrUrArUrCrArGrGrUdCdA” gave a normalised inhibition (eCFP-eYFP dual reporter) of 68.5%.
In the case of “sense rArCrCrUrGrGrGrArGrArArGrGrGrUrCrGrGrAdTdT / antisense rUrCrCrGrArCrCrCrUrUrCrUrCrCrCrArGrGrUdCdA”, the normalised inhibition (eCFP-eYFP dual reporter) is reported as 77.6%.
“sense rArCrGrArCrCrUrCrGrArUrArUrGrArGrUrUrUdTdT / antisense rArArArCrUrCrArUrArUrCrGrArGrGrUrCrGrUdCdA” was tested, and the normalised inhibition (eCFP-eYFP dual reporter) was 70%.
“sense rArCrGrCrArGrUrGrGrArGrCrUrGrGrCrGrGrAdTdT / antisense rUrCrCrGrCrCrArGrCrUrCrCrArCrUrGrCrGrUdCdC” showed a normalised inhibition (eCFP-eYFP dual reporter) of 76.4%.
Substance “sense rArCrUrArUrCrUrArUrUrArUrArArCrCrUrGrCdTdT / antisense rGrCrArGrGrUrUrArUrArArUrArGrArUrArGrUdGdT” has a normalised inhibition (eCFP-eYFP dual reporter) of 42.2%.
With “sense rArCrUrCrGrGrCrCrCrGrArGrCrUrCrGrGrUrCdTdT / antisense rGrArCrCrGrArGrCrUrCrGrGrGrCrCrGrArGrUdCdT” the normalised inhibition (eCFP-eYFP dual reporter) was 61.5%.
Substance “sense rArCrUrGrArGrArCrUrUrGrGrArGrUrUrGrGrAdTdT / antisense rUrCrCrArArCrUrCrCrArArGrUrCrUrCrArGrUdGdT” has a normalised inhibition (eCFP-eYFP dual reporter) of 88.7%.
For “sense rArCrUrUrCrArArGrGrArArGrArGrGrCrGrUrCdTdT / antisense rGrArCrGrCrCrUrCrUrUrCrCrUrUrGrArArGrUdTdT”, the normalised inhibition (eCFP-eYFP dual reporter) was 82.5%.
“sense rArCrUrUrCrGrArGrCrArGrUrUrUrCrUrGrCrUdTdT / antisense rArGrCrArGrArArArCrUrGrCrUrCrGrArArGrUdCdC” was tested, and the normalised inhibition (eCFP-eYFP dual reporter) was 51.4%.
For “sense rArGrArGrGrCrCrUrCrUrGrArGrGrArGrArGrCdTdT / antisense rGrCrUrCrUrCrCrUrCrArGrArGrGrCrCrUrCrUdAdC”, the normalised inhibition (eCFP-eYFP dual reporter) was 69.3%.
For “sense rArGrCrUrCrGrUrGrCrGrGrCrGrGrArUrArGrAdTdT / antisense rUrCrUrArUrCrCrGrCrCrGrCrArCrGrArGrCrUdGdC”, the normalised inhibition (eCFP-eYFP dual reporter) was 79.7%.
“sense rArGrGrGrCrGrGrArGrArArGrGrCrCrGrArCrGdTdT / antisense rCrGrUrCrGrGrCrCrUrUrCrUrCrCrGrCrCrCrUdGdG” gave a normalised inhibition (eCFP-eYFP dual reporter) of 23.9%.
“sense rArGrGrUrCrArArArArCrCrCrUrUrArCrCrArUdTdT / antisense rArUrGrGrUrArArGrGrGrUrUrUrUrGrArCrCrUdCdA” showed a normalised inhibition (eCFP-eYFP dual reporter) of 85.7%.
With “sense rArGrUrGrArUrGrGrCrGrArUrUrGrGrCrUrGrAdTdT / antisense rUrCrArGrCrCrArArUrCrGrCrCrArUrCrArCrUdCdA” the normalised inhibition (eCFP-eYFP dual reporter) was 85.8%.
Work on “sense rArGrUrUrUrCrUrGrCrUrGrCrCrCrGrUrCrArUdTdT / antisense rArUrGrArCrGrGrGrCrArGrCrArGrArArArCrUdGdC” yielded a normalised inhibition (eCFP-eYFP dual reporter) of 66.2%.
“sense rArUrCrCrUrUrGrCrArArUrArCrCrCrUrUrUrGdTdT / antisense rCrArArArGrGrGrUrArUrUrGrCrArArGrGrArUdCdT” gave a normalised inhibition (eCFP-eYFP dual reporter) of 66.3%.
“sense rArUrGrGrCrGrArArGrArUrGrGrCrCrGrArGrAdTdT / antisense rUrCrUrCrGrGrCrCrArUrCrUrUrCrGrCrCrArUdCdT” was tested, and the normalised inhibition (eCFP-eYFP dual reporter) was 78.7%.
Work on “sense rCrArArArArCrCrCrUrUrArCrCrArUrGrUrUrGdTdT / antisense rCrArArCrArUrGrGrUrArArGrGrGrUrUrUrUrGdAdC” yielded a normalised inhibition (eCFP-eYFP dual reporter) of 70.3%.
“sense rCrArArArGrGrArGrGrArGrArGrArUrGrUrArUdTdT / antisense rArUrArCrArUrCrUrCrUrCrCrUrCrCrUrUrUrGdGdT” gave a normalised inhibition (eCFP-eYFP dual reporter) of 99.2%.
Substance “sense rCrArArGrArCrGrCrArGrGrUrArGrArGrGrCrCdTdT / antisense rGrGrCrCrUrCrUrArCrCrUrGrCrGrUrCrUrUrGdAdT” has a normalised inhibition (eCFP-eYFP dual reporter) of 73.2%.
“sense rCrArArGrUrUrGrGrUrArUrCrCrCrCrArUrArUdTdT / antisense rArUrArUrGrGrGrGrArUrArCrCrArArCrUrUrGdTdA” showed a normalised inhibition (eCFP-eYFP dual reporter) of 62.5%.
For “sense rCrArCrCrCrUrGrGrArGrArArGrCrUrGrArArAdTdT / antisense rUrUrUrCrArGrCrUrUrCrUrCrCrArGrGrGrUrGdTdC”, the normalised inhibition (eCFP-eYFP dual reporter) was 66.7%.
“sense rCrArCrUrArCrGrUrUrUrCrUrGrCrUrArUrGrGdTdT / antisense rCrCrArUrArGrCrArGrArArArCrGrUrArGrUrGdTdC” gave a normalised inhibition (eCFP-eYFP dual reporter) of 58%.
“sense rCrArCrUrGrArGrArCrUrUrGrGrArGrUrUrGrGdTdT / antisense rCrCrArArCrUrCrCrArArGrUrCrUrCrArGrUrGdTdC” was tested, and the normalised inhibition (eCFP-eYFP dual reporter) was 77.6%.
